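Cells were grown in 96-well plates and exposed to each compound for 48 hours at five concentrations; endpoints were interpolated linearly between bracketing concentrations, or set to the highest concentration if not reached. GI50 is the concentration that inhibits growth by half.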 The source made the active and inactive calls. Rule as the data show it: active = GI50 up to about 1.1 µM and inactive = higher.
Columns and labels:
Test in all cases: DTP human tumour cell line panel, 48 h
HT-29 = system: HT-29
SNB-75 = system: SNB-75
SK-MEL-28 = system: SK-MEL-28
MDA-N = system: MDA-N
CCRF-CEM = system: CCRF-CEM
CAKI-1 = system: CAKI-1
SF-539 = system: SF-539
TK-10 = system: TK-10
COLO 205 = system: COLO 205
MCF7 = system: MCF7
A549 = system: A549
ACHN = system: ACHN
HCC 2998 = system: HCC 2998
DU-145 = system: DU-145
OVCAR-5 = system: OVCAR-5
SR = system: SR
NCI-H226 = system: NCI-H226
LOX IMVI = system: LOX IMVI
Hs-578T = system: Hs-578T
MDA-MB-435 = system: MDA-MB-435

| Compound | GI50 (HT-29) | GI50 (SNB-75) | GI50 (SK-MEL-28) | GI50 (MDA-N) | GI50 (CCRF-CEM) | GI50 (CAKI-1) | GI50 (SF-539) | GI50 (TK-10) | GI50 (COLO 205) | GI50 (MCF7) | GI50 (A549) | GI50 (ACHN) | GI50 (HCC 2998) | GI50 (DU-145) | GI50 (OVCAR-5) | GI50 (SR) | GI50 (NCI-H226) | GI50 (LOX IMVI) | GI50 (Hs-578T) | GI50 (MDA-MB-435) |
| --- | --- | --- | --- | --- | --- | --- | --- | --- | --- | --- | --- | --- | --- | --- | --- | --- | --- | --- | --- | --- |
| O=C1c2ccccc2-c2nc3ccncc3n21 | > 100 µM (inactive) | > 100 µM (inactive) | > 100 µM (inactive) | 31.1 µM (inactive) | > 100 µM (inactive) | > 100 µM (inactive) | > 100 µM (inactive) | > 100 µM (inactive) | > 100 µM (inactive) | > 100 µM (inactive) | > 100 µM (inactive) | > 100 µM (inactive) | > 100 µM (inactive) | 51.5 µM (inactive) | > 100 µM (inactive) | > 100 µM (inactive) | > 100 µM (inactive) | – | – | – |
| CC(=O)C(C)(C)CCC(C)(C)C(C)=O | > 100 µM (inactive) | > 100 µM (inactive) | > 100 µM (inactive) | > 100 µM (inactive) | > 100 µM (inactive) | > 100 µM (inactive) | > 100 µM (inactive) | > 100 µM (inactive) | > 100 µM (inactive) | > 100 µM (inactive) | > 100 µM (inactive) | > 100 µM (inactive) | > 100 µM (inactive) | > 100 µM (inactive) | > 100 µM (inactive) | > 100 µM (inactive) | > 100 µM (inactive) | > 100 µM (inactive) | > 100 µM (inactive) | – |
| CNC(=O)CCCNC(=O)CCCCC(=O)N(C)C | > 100 µM (inactive) | – | > 100 µM (inactive) | > 100 µM (inactive) | – | > 100 µM (inactive) | > 100 µM (inactive) | > 100 µM (inactive) | > 100 µM (inactive) | > 100 µM (inactive) | > 100 µM (inactive) | > 100 µM (inactive) | – | > 100 µM (inactive) | > 100 µM (inactive) | – | – | – | – | > 100 µM (inactive) |
| CN(C)c1ccc(/C=N/c2ccc(-c3nc4ccccc4s3)cc2)cc1 | 32.5 µM (inactive) | 26.3 µM (inactive) | 48.9 µM (inactive) | 34.5 µM (inactive) | 0.578 µM (active) | 28.6 µM (inactive) | 52.8 µM (inactive) | 30.1 µM (inactive) | 23.1 µM (inactive) | < 0.01 µM (active) | 39.7 µM (inactive) | 17.4 µM (inactive) | 20.8 µM (inactive) | 35.6 µM (inactive) | 40.2 µM (inactive) | 36.3 µM (inactive) | 32 µM (inactive) | 33.3 µM (inactive) | – | 33.8 µM (inactive) |
| CN(CCCNC(=O)c1cn(C)c2c1Cc1ccccc1-2)CCCNC(=O)c1cn(C)c2c1Cc1ccccc1-2 | 2.32 µM (inactive) | – | 10.8 µM (inactive) | 3.58 µM (inactive) | 2.74 µM (inactive) | 14.9 µM (inactive) | 13.8 µM (inactive) | 11.6 µM (inactive) | 1.9 µM (inactive) | 10.2 µM (inactive) | 15.8 µM (inactive) | 10.5 µM (inactive) | – | – | 15.6 µM (inactive) | 1.45 µM (inactive) | 17.2 µM (inactive) | 6.82 µM (inactive) | 5.85 µM (inactive) | 2.21 µM (inactive) |
| COc1cccc(C2CC(=O)c3cccn32)c1 (stereo not given) | > 100 µM (inactive) | > 100 µM (inactive) | > 100 µM (inactive) | – | > 100 µM (inactive) | > 100 µM (inactive) | > 100 µM (inactive) | > 100 µM (inactive) | > 100 µM (inactive) | > 100 µM (inactive) | 94.6 µM (inactive) | > 100 µM (inactive) | > 100 µM (inactive) | > 100 µM (inactive) | > 100 µM (inactive) | > 100 µM (inactive) | > 100 µM (inactive) | > 100 µM (inactive) | 23.4 µM (inactive) | > 100 µM (inactive) |
| CCOc1c(Br)cc(Br)cc1C=C(C#N)C#N | > 10 µM (inactive) | 7.62 µM (inactive) | 8.26 µM (inactive) | 1.83 µM (inactive) | 1.18 µM (inactive) | – | 3.36 µM (inactive) | 5.43 µM (inactive) | > 10 µM (inactive) | 6.21 µM (inactive) | > 10 µM (inactive) | 2.77 µM (inactive) | > 10 µM (inactive) | – | – | 0.916 µM (active) | 0.69 µM (active) | 1.66 µM (inactive) | 3.67 µM (inactive) | 4.18 µM (inactive) |
| CCC(=O)O[C@H]1CC[C@H]2[C@@H]3CCC4=C/C(=N/OC(=O)c5cccc6c(=O)c7ccccc7[nH]c56)CC[C@]4(C)[C@H]3CC[C@]12C | 27.3 µM (inactive) | 54.6 µM (inactive) | 28.7 µM (inactive) | 35 µM (inactive) | 14 µM (inactive) | – | 20.6 µM (inactive) | 54.6 µM (inactive) | 32.3 µM (inactive) | 20.9 µM (inactive) | 43.5 µM (inactive) | 47.9 µM (inactive) | 21.3 µM (inactive) | – | 33.7 µM (inactive) | 29.8 µM (inactive) | 33.8 µM (inactive) | 23.3 µM (inactive) | 22.4 µM (inactive) | 27.6 µM (inactive) |
| CCCc1n[nH]c(=O)n1N1C(=O)C=CC1=O | – | – | – | > 100 µM (inactive) | > 100 µM (inactive) | > 100 µM (inactive) | > 100 µM (inactive) | > 100 µM (inactive) | > 100 µM (inactive) | > 100 µM (inactive) | > 100 µM (inactive) | – | > 100 µM (inactive) | > 100 µM (inactive) | > 100 µM (inactive) | > 100 µM (inactive) | – | – | – | > 100 µM (inactive) |
| Cc1cc2c(-c3ccccc3)cc(=O)[nH]c2cc1N | > 100 µM (inactive) | > 100 µM (inactive) | > 100 µM (inactive) | > 100 µM (inactive) | > 100 µM (inactive) | > 100 µM (inactive) | > 100 µM (inactive) | – | > 100 µM (inactive) | > 100 µM (inactive) | > 100 µM (inactive) | > 100 µM (inactive) | > 100 µM (inactive) | > 100 µM (inactive) | > 100 µM (inactive) | > 100 µM (inactive) | > 100 µM (inactive) | > 100 µM (inactive) | – | > 100 µM (inactive) |
| COc1ccc(/C=c2\c(=O)[nH]c3nc4ccccc4c(=O)n23)cc1 | 69.8 µM (inactive) | 32.5 µM (inactive) | 42.5 µM (inactive) | – | 39.9 µM (inactive) | 55.8 µM (inactive) | 46.5 µM (inactive) | > 100 µM (inactive) | 60.8 µM (inactive) | 49.9 µM (inactive) | 91.4 µM (inactive) | > 100 µM (inactive) | 80.5 µM (inactive) | 61.2 µM (inactive) | > 100 µM (inactive) | 48.2 µM (inactive) | 74.6 µM (inactive) | 45.9 µM (inactive) | > 100 µM (inactive) | 51.2 µM (inactive) |
| C=CCOc1ccc(C2C(C(=O)OC)C(=O)CC(O)(c3ccccc3)C2C(=O)OC)cc1OC (stereo not given) | 42.2 µM (inactive) | 26.9 µM (inactive) | 41 µM (inactive) | 58.9 µM (inactive) | 30.9 µM (inactive) | 32.3 µM (inactive) | – | 33.7 µM (inactive) | 63.1 µM (inactive) | 21.2 µM (inactive) | 34.4 µM (inactive) | 38.1 µM (inactive) | 40.5 µM (inactive) | 51.6 µM (inactive) | > 100 µM (inactive) | 27.4 µM (inactive) | 22.4 µM (inactive) | 40.1 µM (inactive) | – | 41.1 µM (inactive) |
| CC1(C)O[C@@H]([C@H](O)CO)[C@H](O)[C@@H](C2SCCCS2)O1 | > 100 µM (inactive) | > 100 µM (inactive) | > 100 µM (inactive) | – | – | > 100 µM (inactive) | > 100 µM (inactive) | > 100 µM (inactive) | > 100 µM (inactive) | > 100 µM (inactive) | > 100 µM (inactive) | > 100 µM (inactive) | > 100 µM (inactive) | > 100 µM (inactive) | > 100 µM (inactive) | 23.2 µM (inactive) | > 100 µM (inactive) | – | – | > 100 µM (inactive) |
| N#CC1(C#N)NC(c2cccnc2)C(C#N)(C#N)NC1c1cccnc1 (stereo not given) | > 100 µM (inactive) | 47.9 µM (inactive) | > 100 µM (inactive) | > 100 µM (inactive) | > 100 µM (inactive) | > 100 µM (inactive) | > 100 µM (inactive) | > 100 µM (inactive) | > 100 µM (inactive) | > 100 µM (inactive) | > 100 µM (inactive) | – | > 100 µM (inactive) | > 100 µM (inactive) | > 100 µM (inactive) | – | > 100 µM (inactive) | > 100 µM (inactive) | – | > 100 µM (inactive) |
| Nc1c(C(=O)c2ccc(Cl)c(Cl)c2)[nH]c(NCc2ccccc2)c1C(=S)Nc1ccccc1 | 3.23 µM (inactive) | 10 µM (inactive) | 4.63 µM (inactive) | 3.64 µM (inactive) | – | 15.3 µM (inactive) | 2.68 µM (inactive) | 17.8 µM (inactive) | 1.78 µM (inactive) | 2.47 µM (inactive) | 5.15 µM (inactive) | 12.2 µM (inactive) | 1.74 µM (inactive) | 15.3 µM (inactive) | 13.6 µM (inactive) | 3.1 µM (inactive) | 11.3 µM (inactive) | 2.21 µM (inactive) | – | 5.08 µM (inactive) |
| CNC(=O)N1CCN(C(=O)NC)CCN(C(=O)NC)CC1 | > 100 µM (inactive) | > 100 µM (inactive) | > 100 µM (inactive) | > 100 µM (inactive) | > 100 µM (inactive) | – | – | > 100 µM (inactive) | > 100 µM (inactive) | > 100 µM (inactive) | > 100 µM (inactive) | > 100 µM (inactive) | > 100 µM (inactive) | > 100 µM (inactive) | > 100 µM (inactive) | > 100 µM (inactive) | > 100 µM (inactive) | > 100 µM (inactive) | > 100 µM (inactive) | – |
